Laboratory results: patent publication US20250122581A1, “TUMOR AND METASTASIZING MARKER” (UNIVERSITAET ZU KOELN, priority 2017, published 2025)

How the values were obtained:
Vimentin 3 = test: Cell culture experiments after ET-1 treatment, Western blot; type: cell-based; conditions: cell culture (DU145)
Procedure: Furthermore, cell culture experiments were conducted after ET-1 treatment over different time points and analyzed via Western blot the expression of the different proteins mentioned above. For the ET-1 ELISA and Vim3 ELISA 100 μl of serum was used. DU145 cells were cultured under normal conditions and treated with the substances mentioned. Cells were scratched before treatment. The ET-receptors were blocked 1 h before ET-1 stimulation. Immunofluorescence was performed on paraffin-embedded prostate cancer samples. This immunofluorescence has been carried out as described in Example 1 above. In addition to Vim3-specific antibodies, also Atg7- and pg3-specific primary antibodies have been used.

Vim3 [1] = test: Vim3 expression analysis by qRT-PCR in treated MCF-7 cells; type: cell-based; conditions: combined pretreatment with tamoxifen and β-estradiol/ET-1, p<0.01
Excerpt: FIG. 25A-FIG. 25C show Vim3 expression analysis of treated MX-1 (FIG. 25A; FIG. 25B) and MCF-7 (FIG. 25C) cells by qRT-PCR analysis. […] In both diagrams the increase in Vim3 expression up to ca 700 RFU upon a combinational stimulation with Tam is decisive. Data shown is derived from quadruplicates from an independent experiment. *P<0.05, **P<0.01 and ***P<0.001.
(§1) The dependency of the overexpression of Vim3 due to ET-1 presence and after tamoxifen treatment was shown in cell culture experiments and analyzed via Western blot. The expression of Vim3and ET-1 was analyzed in paraffin-embedded tissue samples of patients with metastatic breast cancers after tamoxifen treatment. MCF-7 cells were cultured under normal conditions and treated with the mentioned substances. Tamoxifen treatment was performed 1 hour prior ET-1 or β-estradiol treatment. Nuclear extracts were isolated and analyzed via Western blot under standard conditions. A Proximity Ligation Assay (PLA) assay was performed according to the manufacturer's protocol. From cells after treatment, the mRNA was isolated and qRT-PCR was performed. Immunohistochemistry was performed according to standardized conditions.

ET-1 = test: Western blot of nuclear extracts of treated MCF-7 breast cancer cells; type: cell-based; conditions: nuclear extracts from breast cancer cells after Tamoxifen treatment
Procedure: as §1

Vim3 [2] = test: Western blot with densitometry of Vim3 in total cell extract of stimulated MCF-7; type: cell-based; conditions: combined Tam plus ET-1 pretreatment versus ET-1 alone, p<0.001
Procedure: WB with 20 μg non-precipitated total cell extract of stimulated MCF-7. The corresponding densitometric analysis of the present bands of a protein analysis on the WB membrane where the intense band of Vim3 (47 kDa) is striking as compared to the very faint band of GAPDH in the same sample is shown with ImageJ, where the background and the control had been subtracted.
Furthermore, the effect of Tam was studied with regard to its translational capacity for Vim3 after a combined Tam plus ET-1 pretreatment versus ET-1 alone. […] Tam upregulates Vim3.

Vim3 [3] = test: Immunohistochemistry of Vim3 in breast cancer specimens and metastases after tamoxifen treatment; type: in vivo, human
Procedure: as §1
Vim3 Expression in Invasive Ductal Breast Carcinoma, and Its Metastases From the pre-evaluation of breast cancer specimen via tissue-microarray it was known that ET-1 and Vim3 staining could be detected in tumor cells, while vimentin full length was only positive in the interstitial tissue. To analyze the expression of the newly described target gene Vim3 in more detail, its expression was investigated in […] biopsies and their respective resection specimens of breast cancer cases. […] In each biopsy, Vim3 was detected, either in nuclear (20/25; strong expression: 3+) and/or diffuse cytoplasmic (25/25) localization. After Tam treatment, seventeen respective resection specimens were still diffusely positive for Vim3, now mainly in a cytoplasmic localization (12/17), with nuclear localization additionally found in 5 specimens (5/17). In 4 cases, lymph node but no other metastases were reported (4/28). In contrast, 7 cases developed organ metastases (7/28), of which 3 had additional lymph node metastases.
The expression of Vim3 and ERB was investigated in resection specimens and their metastases. In a set of 8 cases positive for ERa after tam pretreatment, it was found again a diffuse cytoplasmic expression of Vim3. In addition, in […] metastases (pleura 2×, skin 2×, bone 3×, uterus 1×, liver 1×, soft tissue 1x) Vim3 was also expressed (cytoplasm: 12/12; additional nuclear expression 5/12). In 7 of the 12 metastases, a 3+ nuclear expression for ERB was found, which was in all investigated cases accompanied by Vim3 expression.

Vim3 [4] = test: Vim3 expression analysis by qRT-PCR in treated MX-1 cells; type: cell-based; conditions: combinational stimulation with Tam
Procedure: MCF-7 cells were cultured under normal conditions and treated with the mentioned substances. Tamoxifen treatment was performed 1 hour prior ET-1 or β-estradiol treatment. […] From cells after treatment, the mRNA was isolated and qRT-PCR was performed.

[5] = breast cancer resection specimens, positive/total

Q: How did the “Vimentin 3 production after ET-1 treatment” value (Vimentin 3) turn out when CC[C@H](C)[C@H](NC(=O)[C@H](CC(=O)O)NC(=O)[C@H](CC(C)C)NC(=O)[C@H](Cc1c[nH]cn1)NC(=O)[C@@H]1CSSC[C@H](N)C(=O)N[C@@H](CO)C(=O)N[C@H]2CSSC[C@H](NC(=O)[C@H](CCC(=O)O)NC(=O)[C@H](CCCCN)NC(=O)[C@H](CC(=O)O)NC(=O)[C@H](CCSC)NC(=O)[C@H](CC(C)C)NC(=O)[C@H](CO)NC(=O)[C@H](CO)NC2=O)C(=O)N[C@@H](C(C)C)C(=O)N[C@@H](Cc2ccc(O)cc2)C(=O)N[C@@H](Cc2ccccc2)C(=O)N1)C(=O)N[C@H](C(=O)N[C@@H](Cc1c[nH]c2ccccc12)C(=O)O)[C@@H](C)CC [ET-1, Endothelin-1] was run?
A: produce more Vimentin 3

Q: CC/C(=C(\c1ccccc1)c1ccc(OCCN(C)C)cc1)c1ccccc1 [tamoxifen] was tested. Which “mRNA Vim3 expression” value (Vim3 [1]) did it give?
A: clear increase in mRNA Vim3 expression

Q: And the “ET-1 signal in the nuclear fraction” value (ET-1)?
A: ET-1 expression is triggered

Q: What about the “ET-1 signal in the nuclear fraction” value (ET-1; listed as Tamoxifen) of the same molecule?
A: significant upregulation of the ET-1 signal in the nuclear fraction

Q: And the “formation of Vim3 protein (Western blot densitometry)” value (Vim3 [2])?
A: highly statistically significant induced formation of Vim3

Q: And the “mastectomies with cytoplasmic Vim3 staining after Tam” value (Vim3 [3]; biopsies before Tam: nuclear positivity 19/21)?
A: 13/17

Q: What about the “resection specimens with additional nuclear Vim3 localization after Tam treatment” value (Vim3 [3]; [5]) of the same molecule?
A: 5/17

Q: And the “resection specimens with cytoplasmic Vim3 localization after Tam treatment” value (Vim3 [3]; [5])?
A: 12/17

Q: And the “Vim3 level in tamoxifen-treated tumors and metastases” value (Vim3 [3]; patients with metastatic breast cancers after tamoxifen treatment)?
A: an increase of Vim3 was found in both, the tumor as well as the metastases

Q: What about the “Vim3 expression (qRT-PCR)” value (Vim3 [4]) of the same molecule?
A: ~700 RFU
